Patent publication US20090069551A1, “Flavorant Compounds” (priority 2006, published 2009)

How the values were obtained:
[1] = Sensorial taste evaluation: taste thresholds by modified duo test with a sensory panel; assay type: in vivo; conditions: for taste threshold: modified duo test, sample versus tap water; for threshold concentration, times lower than the threshold concentration of catechin: relative to catechin
Source text: Sensorial taste evaluation of (E)-6-(3-hydroxyphenyl)-(4-O-β-D-glucopyranoside)hex-5-en-2-one and (3E,5E)-6-[3-Hydroxy-4-O-β-D-glucopyranoside-phenyl]-hexa-3 ,5-dien-2-one
For evaluation of taste thresholds of the isolated substances, a modified duo test is used. […] As astringent substances can remain longer on the tongue or possibly can be fortified by addition of tap water, the assessed dilutions (tap water and assay) were given on two different regions of the tongue to compare the taste impressions. The panelists had to determine the dilution at which a difference between sample and tap water could be found.

[2] = Isoastringency: isointensity of astringent perception with a 700 μM aqueous catechin solution; assay type: in vivo; conditions: versus 700 μM aqueous catechin solution (pH 4.5)

Row | SMILES | taste threshold [1] | threshold concentration, times lower than the threshold concentration of catechin [1] | isoastringency: concentration needed to reach isointensity of astringent perception with catechin solution [2]
1 | CC(=O)CC/C=C/c1ccc(O[C@@H]2OC(CO)[C@@H](O)C(O)C2O)c(O)c1 (stereo partly drawn) [(E)-6-(3-hydroxyphenyl)-(4-O-β-D-glucopyranoside)hex-5-en-2-one] | 4.3 µmol/L | about 100 times | 120 µmol/L
2 | CC(=O)/C=C/C=C/c1ccc(O[C@@H]2OC(CO)[C@@H](O)C(O)C2O)c(O)c1 (stereo partly drawn) [(3E,5E)-6-[3-Hydroxy-4-O-β-D-glucopyranoside-phenyl]-hexa-3,5-dien-2-one] | 4.0 µmol/L | about 100 times | 200 µmol/L
